The record followed here is ChEMBL document CHEMBL1151696 (Bioorg Med Chem, 2008).

Active and inactive are the calls of the source. The calls are words filed in the database; no cut-off is given here.

Series [1] has as its target Glutamate NMDA receptor. In words: (§1) Antagonist activity at NMDA receptor in cerebellar granule neurons assessed as inhibition of NMDA-induced increase in intracellular calcium concentration by fluorometric assay. The class given is functional, cell-based. Background: A change in cytosolic calcium serves as a functional read-out for many receptors and channels.
The subject of series [2] is Mammalian orthoreovirus 1. The class given is functional, organism-based.
The test system of series [3] is Human respirovirus 3. The class given is functional, organism-based.
The subject of series [4] is Coxsackievirus B4. The class given is functional, organism-based.
The test system of series [5] is Sindbis virus. Format: functional, organism-based.
The subject of series [6] is Vesicular stomatitis virus. The class given is functional, organism-based.
The target in series [7] is T1, Glutamate NMDA receptor (Rattus norvegicus) (UniProt P35439+Q00959+Q00960+Q00961+Q62645+Q8VHN2+Q9R1M7). In words: (§2) Antagonist activity at NMDA receptor in cerebellar granule neurons assessed as inhibition of glutamate-induced increase in intracellular calcium concentration by fluorometric assay. The class given is functional, cell-based.
Series [8] relates to Punta Toro virus. The class given is functional, organism-based.
Series [9] relates to Human alphaherpesvirus 1. Format: functional, organism-based.
Series [10] relates to Respiratory syncytial virus. The class given is functional, organism-based.
Series [11] relates to Human alphaherpesvirus 2. The class given is functional, organism-based.
Series [12] deals with Feline coronavirus. Format: functional, organism-based.
For series [13], the species on record is Rattus norvegicus. As to the kind of experiment: Inhibition of [3H]dopamine uptake in Wistar rat striatum synaptosomes at 100 uM by scintillation spectrometry. The class given is functional, subcellular. Set-up: scale not given: the % may be the effect or the level left.
Series [14] deals with Influenza A virus H3N2. The class given is functional, organism-based, Influenza A virus (A/Hong Kong/7/1987(H3N2)). The note with it: MDCK.
In series [15] the target is Glutamate NMDA receptor. The series is described as §2. Format: functional, cell-based.
Series [16] has as its system Influenza A virus. As to the kind of experiment: microbe, parasite or virus in culture. The note with it: A/Puerto Rico/8/1934(H1N1), MDCK.
A short description of series [17]: Cytotoxicity against MDCK cells by MTS assay. Format: cell-based, Canis lupus familiaris. The note with it: dog. For orientation: Tetrazolium dyes change colour on reduction, which living cells bring about.
Series [18] has as its system Influenza B virus. The class given is functional, organism-based. The note with it: B/Hong Kong/05/1972, MDCK.
Series [19] deals with Trypanosoma brucei. In words: Trypanocidal activity against Trypanosoma brucei 427 blood stream after 48 hrs by hemocytometer. The note with it: Trypanosoma brucei, 427, 48 h. Format: functional, organism-based.
Series [20] deals with Trypanosoma brucei. As to the kind of experiment: Trypanocidal activity against Trypanosoma brucei 427 blood stream at 5 ug/ml after 48 hrs by hemocytometer. The class given is functional, organism-based.
The target in series [21] is T1, Glutamate NMDA receptor (Rattus norvegicus). The description is as §1. The class given is functional, cell-based.

The term IC50 denotes the concentration that inhibits the measured activity by half. With `CN(Cc1ccccc1)CC12CC3(C)CC1CC3(C)C2`, the IC50 in series [1] amounted to 160 µM. In addition, the outcome in [2], in series [3], in [4], in series [5], in series [6] and in series [7] was inactive. Also, the outcome in [8], in series [9], in [10], in series [11] and in series [12] was inactive.

In general, EC50 refers to the concentration giving half of the maximal effect. Consider `NCC12CC3CC(CC1C3)C2`, for which the IC50 in series [1] and in series [15] was above 200 µM in each case. For the same molecule, the outcome in [2], in [3], in [4], in series [5], in [6] and in series [8] was inactive. Also, the result in series [9], in series [18], in [10], in [11] and in [12] was inactive. In [13], the Activity came out at 50.1%. Further, the EC50 in [14] is 52 µM; in series [16], 36 µM. Also, the MCC in series [17] is above 530 µM.

Take `NC12CC3CC(CC1C3)C2`: the concentration for half-maximal inhibition (IC50) in series [1] was 92 µM; in series [15], above 500 µM. The molecule further gave an Activity in [13] of 84.9%. Moreover, the EC50 in series [14] came out at 26.5 µM; in series [16] it was 196 µM. In [17], the MCC was above 575 µM. For the same molecule, the outcome in series [18] was inactive.

The molecule `NC12CC3CC(CC(C3)C1)C2` [AMANTADINE] registered an Activity in series [13] of 47.4%. Further, the EC50 came to 2.7 µM in series [14] and 77 µM in series [16]. For the same molecule, in series [17], the MCC was above 100 µM. The outcome in [18] was inactive. The molecule further displayed an IC50 in [19] above 130 µM.

As usually defined, the IC90 is the point of the concentration-response curve where the effect stands at 90%. Turning to `CC(N)C12CC3(C)CC1CC3(C)C2` (stereo not drawn), the figures for the IC50 in series [1], in series [15] and in series [19] were 37 µM, 94 µM and 6.02 µM, respectively. Also, the result in [2], in [3], in series [4], in series [5], in series [6] and in series [8] was inactive. The result in series [9], in [10], in series [11] and in [12] was inactive. Moreover, the Activity in series [13] amounted to 72.2%. For the same molecule, it took 9.48 µM to reach the 90% level in series [19] (IC90).

Take `CC12CC3CC1(C)CC3(CN)C2`: the IC50 in [1] is 128 µM; in [15], above 500 µM. The outcome in series [2], in series [3], in series [4], in series [5], in series [6] and in series [8] was inactive. The result in series [9], in series [10], in [20], in series [11] and in series [12] was inactive. Moreover, in [13], the Activity worked out at 39.1%.

For `CC(N)C12CC3CC(CC(C3)C1)C2` (stereo not drawn) [RIMANTADINE], a half-maximal effect in series [14] (EC50) was put at 0.85 µM. Besides, in series [17], the MCC is above 100 µM. In addition, the outcome in series [18] was inactive. In series [19], it took 14 µM to reach the 90% level (IC90).

For the molecule `CC12CC3CC1(C)CC3(CNCc1ccccc1)C2`, the IC50 in series [1] was 47 µM. Besides, the result in series [2], in series [3], in series [4], in series [5], in series [6] and in series [7] was inactive. Further, the outcome in series [8], in series [9], in [10], in [20], in series [11] and in series [12] was inactive.

Take `c1csc(CNC23CC4CC(CC2C4)C3)c1`: the figures for the IC50 in [1] and in [15] were 17 µM and 384 µM, respectively. Also, the result in series [2], in series [3], in series [4], in series [5], in series [6] and in series [8] was inactive. For the same molecule, the result in series [9], in series [10], in series [11] and in [12] was inactive. Besides, the Activity in series [13] was 47.7%.

In the case of `C1CCN(C23CC4CC(CC2C4)C3)CC1`, the results for the concentration for half-maximal inhibition (IC50) in series [1] and in series [15] were 45 µM and above 500 µM, respectively. Also, the outcome in series [2], in [3], in series [4], in series [5], in [6] and in series [8] was inactive. Besides, the result in series [9], in series [10], in series [11] and in series [12] was inactive. Further, the Activity in [13] was 68.5%.

Consider `CNCC12CC3(C)CC1CC3(C)C2`, for which the IC50 in series [1] and in [15] was above 200 µM throughout. The result in series [2], in series [3], in [4], in [5], in series [6] and in series [8] was inactive. Also, the outcome in [9], in [10], in [11] and in series [12] was inactive. Moreover, the Activity in [13] came out at 57.3%.

Take `Fc1ccc(CNC23CC4CC(CC2C4)C3)cc1`: the IC50 in [1] and in series [15] was above 200 µM each time. The outcome in [2], in series [3], in series [4], in series [5], in [6] and in series [8] was inactive. The outcome in [9], in series [10], in [11] and in series [12] was inactive. This molecule also had an Activity in series [13] of 81.1%.

For `CC12CC3CC1(C)CC3(N(Cc1ccccc1)Cc1ccccc1)C2`, the result in series [21], in series [2], in series [3], in series [4], in [5] and in [6] was inactive. For the same molecule, the outcome in [7], in [8], in series [9], in [10], in [11] and in series [12] was inactive. The Activity in [13] was 74.3%.

On to `CC12CC3CC1(C)CC3(CN1CCCCC1)C2`, for which the IC50 in [1] and in [15] was above 200 µM in each case. Further, the outcome in series [2], in [3], in series [4], in series [5], in series [6] and in [8] was inactive. For the same molecule, the outcome in series [9], in [10], in series [11] and in series [12] was inactive. In series [13], the Activity turned out to be 39.8%.

`CN(C)C12CC3(C)CC1CC3(C)C2`: the IC50 in series [1] was determined as 153 µM; in series [15], 185 µM. The outcome in series [2], in series [3], in series [4], in series [5], in series [6] and in series [8] was inactive. Further, the outcome in series [9], in series [10], in series [20], in series [11] and in series [12] was inactive. The molecule also returned an Activity in series [13] of 75.2%.

In the case of `CN(Cc1ccccc1)CC12CC3CC(CC1C3)C2`, the IC50 in series [1] was 178 µM; in [15] it was above 500 µM. Moreover, the outcome in series [2], in series [3], in series [4], in series [5], in series [6] and in series [8] was inactive. Also, the outcome in series [9], in [10], in series [11] and in series [12] was inactive. This molecule also displayed an Activity in series [13] of 45%.
